Results: patent US9334276B2, “Forms and salts of a dihydropyrrolo[1,2c]imidazolyl aldosterone synthase or aromatase inhibitor” (Novartis AG, priority 2012, dated 2016)
Like-named read-outs stand apart in the source and are kept apart here.

What was measured:
[1] = Determination of solubility (excess solids equilibrated over 24 hours at 25° C.); format: physicochemical; details: thermodynamic from solid
Method: Excess solids were equilibrated in each solvent for over 24 hours at 25° C.±0.1. Concentration in supernatant was measured by gravimetry for organic solvents and by HPLC from aqueous solvents and propylene glycol.

[2] = Hygroscopicity: sorption/desorption isotherms, VTI 100 humidity microbalance; format: physicochemical; details: for Moisture gain (water uptake): 25° C.
Method: Sorption/desorption isotherms were measured using the VTI 100 humidity microbalance (VTI Corporation, Hialeah, Fla., USA). Measurements were carried out at 25° C. Samples were dried under N2 flow at 25° C.

Compound	solubility ([1]; organic solvent or mixture, Ethyl Acetate, read-out: Solubility profile) [mg/mL]	solubility ([1]; simulated gastric fluid, pH 1, read-out: Solubility profile) [mg/mL]	Moisture gain (water uptake) ([2]; 0% r.h.) [%]	Moisture gain (water uptake) ([2]; 5% r.h.) [%]	Moisture gain (water uptake) ([2]; 25% r.h.) [%]	Moisture gain (water uptake) ([2]; 50% r.h.) [%]	Moisture gain (water uptake) ([2]; 75% r.h.) [%]	Moisture gain (water uptake) ([2]; 85% r.h.) [%]	Moisture gain (water uptake) ([2]; 95% r.h.) [%]	Hygroscopicity (in words) ([2]; in contrast to the phosphate and nitrate salts)	Moisture gain (water uptake) ([2]; 5% r.h., listed as Phosphate) [%]	Moisture gain (water uptake) ([2]; 5% r.h., listed as phosphate salt) [%]	Moisture gain (water uptake) ([2]; 75% r.h., listed as Phosphate) [%]	Moisture gain (water uptake) ([2]; 75% r.h., listed as phosphate salt) [%]	Moisture gain (water uptake) ([2]; 5% r.h., listed as Nitrate) [%]
N#Cc1ccc([C@H]2CCc3cncn32)c(F)c1 [Free base, 4-(R)-(6,7-Dihydro-5H-pyrrolo[1,2-c]imidazol-5-yl)-3-fluoro-benzonitrile]	> 50	> 50	0.0	0.0	0.1	0.2	0.3	0.5	1.0						
Cl.N#Cc1ccc([C@H]2CCc3cncn32)c(F)c1 [HCl salt, HCl salt of 4-(R)-(6,7-dihydro-5H-pyrrolo[1,2-c]imidazol-5-yl)-3-fluoro-benzonitrile, reference compound]			0.0	0.0	0.5	0.2	0.2	3.3	23.6	excessive hygroscopicity					
N#Cc1ccc([C@H]2CCc3cncn32)c(F)c1.O=P(O)(O)O [Phosphate salt, Phosphate salt of 4-(R)-(6,7-dihydro-5H-pyrrolo[1,2-c]imidazol-5-yl)-3-fluoro-benzonitrile (Form A)]			0.0		0.1	0.1		0.3	0.8		0.0	0	0.2	0.9	
N#Cc1ccc([C@H]2CCc3cncn32)c(F)c1.O=[N+]([O-])O [nitrate salt, Nitrate salt of 4-(R)-(6,7-dihydro-5H-pyrrolo[1,2-c]imidazol-5-yl)-3-fluoro-benzonitrile]			0.0	0	0.1	0.2	0.2	0.2	0.2						0.0
